Reference: patent US20260232767A1, “INTERLEUKIN-23 RECEPTOR ANTAGONIST PEPTIDES FOR USE IN THE TREATMENT OF PSORIASIS” (Janssen Pharmaceutica NV, priority 2023, published 2026)

Test system: subjects with moderate-to-severe plaque psoriasis
Assay: Safety, adverse events, Example 2 through Week 56
Assay type: in vivo, human
Parameters: Participants experiencing 1 or more AEs: unit not given here
Settings: for Subjects with 1 or more Adverse events / Subjects with 1 or more Adverse events: Alanine aminotransferase increased / Subjects with 1 or more Adverse events: Arthralgia / Subjects with 1 or more Adverse events: Aspartate aminotransferase increased / Subjects with 1 or more Adverse events: Bronchitis / Subjects with 1 or more Adverse events: COVID-19 / Subjects with 1 or more Adverse events: Cough / Subjects with 1 or more Adverse events: Diarrhea / Subjects with 1 or more Adverse events: Headache / Subjects with 1 or more Adverse events: Influenza / Subjects with 1 or more Adverse events: Nasopharyngitis / Subjects with 1 or more Adverse events: Upper respiratory tract infection / Subjects with 1 or more Adverse events: Urinary tract infection / Subjects with 1 or more Serious adverse events / Subjects with 1 or more Serious adverse events: COVID-19 / Subjects with 1 or more Serious adverse events: Cerebrovascular accident / Subjects with 1 or more Serious adverse events: Coronary artery disease / Subjects with 1 or more Serious adverse events: Diverticulitis / Subjects with 1 or more Serious adverse events: Foot deformity / Subjects with 1 or more Serious adverse events: Infected cyst / Subjects with 1 or more Serious adverse events: Intervertebral disc protrusion / Subjects with 1 or more Serious adverse events: Ligament injury / Subjects with 1 or more Serious adverse events: Non-cardiac chest pain / Subjects with 1 or more Serious adverse events: Suicide attempt / Subjects with 1 or more Serious adverse events: Tonsillar hypertrophy / Subjects with 1 or more Serious adverse events: Uterine leiomyoma / Subjects with 1 or more Serious adverse events: Ventricular dysfunction / Subjects with 1 or more treatment-emergent adverse events leading to discontinuation of study agent: number of subjects
Excerpt: The LTE safety analysis was based on randomized participants in Example who entered the present long-term extension study and received at least one dose of study intervention (including a partial dose) during the study period.

[1] = Placebo → 100 mg QD, through Week 56
[2] = Week 16 through Week 56, dose group = column
[3] = combined group, long-term extension

## CC(=O)NCCCC[C@@H]1NC(=O)[C@H](Cc2c[nH]c3c(C)cccc23)NC(=O)[C@H]([C@@H](C)O)NC(=O)[C@H](CC(N)=O)NC(=O)[C@@H](NC(C)=O)C(C)(C)SSC(C)(C)[C@@H](C(=O)N[C@@H](Cc2ccc(OCCN)cc2)C(=O)N[C@@H](Cc2ccc3ccccc3c2)C(=O)NC2(C(=O)N[C@@H](CCC(=O)O)C(=O)N[C@@H](CC(N)=O)C(=O)N[C@@H](Cc3cccnc3)C(=O)N(C)CC(N)=O)CCOCC2)NC1=O [IL-23 receptor antagonist peptide, Ac-[Pen]*-N-T-[W(7-Me)]-[Lys(Ac)]-[Pen]*-Phe[4-(2-aminoethoxy)]-[2-Nal]-[THP]-E-N-[3-Pal]-Sarc-NH2 (*[Pen]-[Pen]* formdisulfidebond)]
[1]
  Pyrexia: number of subjects: 0
  Rash pruritic: number of subjects: 0
  Renal and urinary disorders: % of subjects: (5.7%)
  Renal and urinary disorders: number of subjects: 2
  Renal mass: number of subjects: 0
  Respiratory, thoracic and mediastinal disorders: % of subjects: (2.9%)
  Respiratory, thoracic and mediastinal disorders: number of subjects: 1
  Retinal vein occlusion: % of subjects: (2.9%)
  Retinal vein occlusion: number of subjects: 1
  Rhinorrhoea: number of subjects: 0
  Seasonal allergy: number of subjects: 0
  Skin and subcutaneous tissue disorders: % of subjects: (5.7%)
  Skin and subcutaneous tissue disorders: number of subjects: 2
  Skin laceration: number of subjects: 0
  Skin papilloma: number of subjects: 0
  Social circumstances: number of subjects: 0
  Steatohepatitis: number of subjects: 0
  Suicide attempt: number of subjects: 0
  Sunburn: number of subjects: 0
  Thrombocytopenia: number of subjects: 0
  Thrombocytosis: number of subjects: 0
  Tonsillar hypertrophy: number of subjects: 0
  Tooth fracture: number of subjects: 0
  Type 2 diabetes mellitus: number of subjects: 0
  Urinary tract disorder: number of subjects: 0
  Uterine leiomyoma: number of subjects: 0
  Vascular disorders: % of subjects: (2.9%)
  Vascular disorders: number of subjects: 1
  Ventricular dysfunction: number of subjects: 0
  Vertigo: number of subjects: 0
  Vitamin D deficiency: number of subjects: 0
[2]
  Investigations (system organ class): % of subjects: (10.5%)
  Nasopharyngitis: % of subjects: (25.7%)
All groups, long-term extension
  Infections and infestations AEs: 41.9%
All treatment groups, long-term extension
  Tolerability: well-tolerated
[3]
  COVID-19: 5.3%
  Nasopharyngitis: 18.1%
  Participants experiencing 1 or more AEs: 58.600
  Upper respiratory tract infection: 9.7%
long-term extension
  Number of participants who discontinued study intervention due to one or more AEs: 4
  Participants with one or more serious adverse events: 4.0%
Through Week 56, 25 mg BID
  Subjects with 1 or more Adverse events: 32
  Subjects with 1 or more Adverse events: Alanine aminotransferase increased: 1
  Subjects with 1 or more Adverse events: Arthralgia: 0
  Subjects with 1 or more Adverse events: Aspartate aminotransferase increased: 1
  Subjects with 1 or more Adverse events: Bronchitis: 2
  Subjects with 1 or more Adverse events: COVID-19: 9
  Subjects with 1 or more Adverse events: Cough: 0
  Subjects with 1 or more Adverse events: Diarrhea: 2
  Subjects with 1 or more Adverse events: Headache: 3
  Subjects with 1 or more Adverse events: Influenza: 3
  Subjects with 1 or more Adverse events: Nasopharyngitis: 8
  Subjects with 1 or more Adverse events: Upper respiratory tract infection: 3
  Subjects with 1 or more Adverse events: Urinary tract infection: 1
  Subjects with 1 or more Serious adverse events: 3
  Subjects with 1 or more Serious adverse events: COVID-19: 0
  Subjects with 1 or more Serious adverse events: Cerebrovascular accident: 0
  Subjects with 1 or more Serious adverse events: Coronary artery disease: 0
  Subjects with 1 or more Serious adverse events: Diverticulitis: 0
  Subjects with 1 or more Serious adverse events: Foot deformity: 0
  Subjects with 1 or more Serious adverse events: Infected cyst: 0
  Subjects with 1 or more Serious adverse events: Intervertebral disc protrusion: 0
  Subjects with 1 or more Serious adverse events: Ligament injury: 1
  Subjects with 1 or more Serious adverse events: Non-cardiac chest pain: 0
  Subjects with 1 or more Serious adverse events: Suicide attempt: 0
  Subjects with 1 or more Serious adverse events: Tonsillar hypertrophy: 1
  Subjects with 1 or more Serious adverse events: Uterine leiomyoma: 0
  Subjects with 1 or more Serious adverse events: Ventricular dysfunction: 1
  Subjects with 1 or more treatment-emergent adverse events leading to discontinuation of study agent: 2
Through Week 56, 25 mg QD
  Subjects with 1 or more Adverse events: 24
  Subjects with 1 or more Adverse events: Alanine aminotransferase increased: 1
  Subjects with 1 or more Adverse events: Arthralgia: 1
  Subjects with 1 or more Adverse events: Aspartate aminotransferase increased: 1
  Subjects with 1 or more Adverse events: Bronchitis: 2
  Subjects with 1 or more Adverse events: COVID-19: 6
  Subjects with 1 or more Adverse events: Cough: 1
  Subjects with 1 or more Adverse events: Diarrhea: 2
  Subjects with 1 or more Adverse events: Headache: 2
  Subjects with 1 or more Adverse events: Influenza: 0
  Subjects with 1 or more Adverse events: Nasopharyngitis: 3
  Subjects with 1 or more Adverse events: Upper respiratory tract infection: 7
  Subjects with 1 or more Adverse events: Urinary tract infection: 2
  Subjects with 1 or more Serious adverse events: 0
  Subjects with 1 or more Serious adverse events: COVID-19: 0
  Subjects with 1 or more Serious adverse events: Cerebrovascular accident: 0
  Subjects with 1 or more Serious adverse events: Coronary artery disease: 0
  Subjects with 1 or more Serious adverse events: Diverticulitis: 0
  Subjects with 1 or more Serious adverse events: Foot deformity: 0
  Subjects with 1 or more Serious adverse events: Infected cyst: 0
  Subjects with 1 or more Serious adverse events: Intervertebral disc protrusion: 0
  Subjects with 1 or more Serious adverse events: Ligament injury: 0
  Subjects with 1 or more Serious adverse events: Non-cardiac chest pain: 0
  Subjects with 1 or more Serious adverse events: Suicide attempt: 0
  Subjects with 1 or more Serious adverse events: Tonsillar hypertrophy: 0
  Subjects with 1 or more Serious adverse events: Uterine leiomyoma: 0
  Subjects with 1 or more Serious adverse events: Ventricular dysfunction: 0
  Subjects with 1 or more treatment-emergent adverse events leading to discontinuation of study agent: 3
Through Week 56, 50 mg QD
  Subjects with 1 or more Adverse events: 32
  Subjects with 1 or more Adverse events: Alanine aminotransferase increased: 1
  Subjects with 1 or more Adverse events: Arthralgia: 1
  Subjects with 1 or more Adverse events: Aspartate aminotransferase increased: 1
  Subjects with 1 or more Adverse events: Bronchitis: 4
  Subjects with 1 or more Adverse events: COVID-19: 6
  Subjects with 1 or more Adverse events: Cough: 2
  Subjects with 1 or more Adverse events: Diarrhea: 4
  Subjects with 1 or more Adverse events: Headache: 1
  Subjects with 1 or more Adverse events: Influenza: 1
  Subjects with 1 or more Adverse events: Nasopharyngitis: 13
  Subjects with 1 or more Adverse events: Upper respiratory tract infection: 3
  Subjects with 1 or more Adverse events: Urinary tract infection: 1
  Subjects with 1 or more Serious adverse events: 3
  Subjects with 1 or more Serious adverse events: COVID-19: 0
  Subjects with 1 or more Serious adverse events: Cerebrovascular accident: 0
  Subjects with 1 or more Serious adverse events: Coronary artery disease: 1
  Subjects with 1 or more Serious adverse events: Diverticulitis: 0
  Subjects with 1 or more Serious adverse events: Foot deformity: 1
  Subjects with 1 or more Serious adverse events: Infected cyst: 1
  Subjects with 1 or more Serious adverse events: Intervertebral disc protrusion: 0
  Subjects with 1 or more Serious adverse events: Ligament injury: 0
  Subjects with 1 or more Serious adverse events: Non-cardiac chest pain: 1
  Subjects with 1 or more Serious adverse events: Suicide attempt: 0
